# Test results taken from patent US20240075004A1, “VERY-LONG-CHAIN POLYUNSATURATED FATTY ACIDS, ELOVANOID HYDROXYLATED DERIVATIVES, AND METHODS OF USE” (The Board of Supervisors of Louisiana State University and …, priority 2020, published 2024).
# Assays:
# [1] = tested on: primary human RPE cells; experiment: Primary human RPE cells challenged with OAβ: SA-β-Gal staining and qPCR; assay type: cell-based; conditions: 10 μM OAβ; qPCR after 3 days, SA-β-Gal after 7 days
# Experimental: All experiments with primary human RPE cells were approved by the Institutional Review Board of LSUHNO and conducted in accordance with NIH guidelines. Cells were collected from anonymous donors provided by eye banks. Briefly, globes of a person, without eye pathology were obtained from NDRI within 24 hours after death from head trauma. Globes were opened, and RPE cells harvested and cultured (1, 2) and grown in MEM medium supplemented with 10% FBS, 5% NCS, non-essential amino acids, Penicillin-Streptomycin (100 U/mL), human fibroblast growth factor 10 ng/ml and incubated at 37° C. with a constant supply of 5% CO2. Cells integrity was validated as in previous study (3). For oligomeric Aβ treatment, cells were seeded in the 6-well plates, 30.000 cells/cm2. After 2 days, sub-confluent cells were treated with 10 μM OAβ or with PBS (vehicle control).
# Aβ (1-42) (HFIP-treated, ANASPEC Company, Fremont, CA, USA, Cat AS-64129) was resuspended by adding 1% NH4OH/Water and DMSO to obtain a concentration 500 μM and sonicated for 10 min. […]
# Cells were visualized using SA-β-Gal staining kit (Cat 9860, Cell Signaling Technology, MA, USA). […] Pictures were taken under brightfield microscope (Nikon Eclipse TS100) 200× magnification after the development of blue color, and cells counted in 10 different random fields per well. […]
# [2] = tested on: ARPE-19 cells; experiment: Protein abundance and apoptosis in ARPE-19 cells undergoing UOS; assay type: cell-based; conditions: RPE cells under UOS; sodium salt forms
# Experimental: ELV-N32 or ELV-N34 indicates the sodium salt forms, and ELV-N34-Me or ELV-N32-Me indicates the methyl ester forms. ELVs induces the following effects in ARPE-19 cells undergoing UOS: (panel a) Concentration-dependent (100 and 250 nM) upregulation of SIRT1. The results are the averages of three independent experiments; (panel b) upregulation of Iduna abundance; (panel c) increased abundance of anti-apoptotic proteins Bcl-2 and Bcl-xL; (panel d) decreased abundance of pro-apoptotic proteins Bax, (panel e) Bid and (panel f) Bim. (panel g) Concentration-dependent (100 and 250 nM) upregulation of Prohibitin (type-1) by ELVs takes place. (panel h) Concentration-dependent (50, 100, 250, and 500 nM) reduction of UOS-induced apoptosis. Error bars, SEM; *p<0.05.
# [3] = tested on: p16INK4a; experiment: p16INK4a western blots of RPE/Choroid after subretinal OAβ injection; assay type: in vivo, C57BL/6J WT mice; conditions: elevated by OAβ injection; subretinal co-injection 200 ng with 10 μM OAβ, topical drops 200 nM twice a day; day 7
# Experimental: All animal experiments were performed according to ARVO Statement for the Use of Animals in Ophthalmic and Vision Research, and the protocol was approved by LSU Health New Orleans' Institutional Animal Care and Use Committee (IACUC). 6-month-old 5×FAD mice (stock number: 34848-JAX, The Jackson Laboratory, Bar Harbor, ME, USA), co-overexpress FAD mutant forms of human amyloid precursor protein (the Swedish mutation: K670N, M671L; the Florida mutation: I716V; and the London mutation: V7171) and presenilin 1 (PS1, encoded by Psen1: M146L, L286V) transgenes under transcriptional control of the neuron-specific mouse Thy1 promoter. 5×FAD mice were hemizygotes with respect to the transgenes and non-transgenic WT littermates. Genotyping was performed by PCR of tail DNA. All analyses were carried out blind with respect to the mice genotype. For the subretinal injection, 6-month-old C57BL/6J mice were anesthetized by an intraperitoneal injection of ketamine/xylazine, pupils dilated with 1.0% tropicamide (Akorn, IL, USA); and 0.5% Proparacaine Hydrochloride (Akorn) was applied for topical anesthesia. […]
# Samples were lysed by RIPA buffer and protein determined by Bradford assay (Bio-Rad, Hercules, CA, USA). […] Densitometry data were statistically analyzed at 95% confidence level.
# [4] = methyl ester or sodium salt, cited from earlier work; for infarct volumes: administered 1 hour following 2 hours of ischemia by MCA occlusion; for cell survival / neurovascular unit disruption: administered 1 hour following 2 hours of ischemia
SMILES,"OAβ-altered RPE cell morphology, SASP (SA-β-Gal staining) and expression of senescence, AMD, matrix metalloproteinase and autophagy-related genes [1]",abundance of cell damaging proteins [2],abundance of pro-homeostatic proteins [2],expression of the key senescence marker p16INK4a (western blots of RPE/Choroid) [3],infarct volumes [4],cell survival [4],neurovascular unit disruption [4]
CC/C=C\C[C@H](O)\C=C/C=C/C=C/[C@H](O)C/C=C\C/C=C\CCCCCCCCCCCCC(=O)O [ELV-N-32],reverted these effects,decrease abundance,enhance abundance,down regulated,reduced,promoted,diminished
CC/C=C\C[C@H](O)\C=C/C=C/C=C/[C@H](O)C/C=C\C/C=C\CCCCCCCCCCCCCCC(=O)O [ELV-N-34],reverted these effects,decrease abundance,enhance abundance,down regulated,reduced,promoted,diminished
